Marks after values point to notes of the source that are not given here.
Key:
Type in all cases: in vivo, humans
[1] = test system: perception of non-sweet taste attributes (such as bitterness); experiment: Descriptive analysis (DA) panel: non-sweet taste attributes in lemon lime matrix (spider plots); settings: lemon-lime matrix sweetened with HFCS, pH 7
Method: The effect of the test compound on the perception of non-sweet taste attributes (such as bitterness) in a flavored aqueous environment, in the presence of carbohydrate sweeteners, was evaluated using a descriptive analysis methodology with a group of trained panelists, as follows. This occurred as part of DA assessment described previously in Example 3.
The trained panel was then used for a descriptive analysis assessment for Compound 2 and Compound 5 in lemon lime flavored matrix, sweetened with high fructose corn syrup (HFCS), at a test dose of 50 ppm and 20 ppm, respectively.
(§1) All control and variant samples were prepared as described in Example 3. Both control (flavored sweetener solutions without compound) and variant (flavored sweetener solutions with compound) samples were blinded and randomized. Samples were presented in monadic order and panelists were instructed to sip the sample, swirl it in their mouths and expectorate. A total of 7 attributes including sweet, bitter, sour, licorice and thickness were assessed for each sample. After each sample assessment, panelists performed a standard palate cleansing protocol, and observed an inter-sample interval time (ISI). All samples were evaluated at ambient temperatures.
Data was collected and exported electronically utilizing FIZZ sensory software. […]

[2] = test system: perception of the sweet taste in a flavored aqueous environment; experiment: Descriptive analysis (DA) panel: sweetness enhancement in HFCS sweetened lemon lime matrix; settings: for Fold enhancement of sweetness perception as compared to control sample: vs negative control; for Perceived sweetness (spider plot, vs control sweetener solution): lemon-lime matrix sweetened with HFCS, pH 7
Method: The effect of the test compound on the perception of the sweet taste in a flavored aqueous environment, in the presence of carbohydrate sweeteners, was evaluated using a descriptive analysis methodology with a group of trained panelists, as follows.
The panel used in this example was trained to reference sweet attributes in an absolute manner, such that a particular concentration of sweetener is always measured by the panelists at the same point using a 15 cm line scale where each cm represents a 1% increase in sucrose to cover the range of 0% to 15% sucrose. For the rest of the attributes, the panel was trained using a hybrid approach between descriptive analysis methods well-known to those skilled in the art.
The trained panel was then used for a descriptive analysis assessment for Compound 2 and Compound 5 in flavored lemon lime matrix. Compound 2 was assessed at a dose of 50 ppm and Compound 5 was assessed at a dose of 20 ppm for sweetness enhancement in high fructose corn syrup (HFCS) sweetened lemon lime matrix.
The flavored sweetener solutions were prepared by adding sucrose equivalent quantities of HFCS (by weight), to lemon lime matrix to achieve the desired concentration. Compound was first prepared as a 500-fold concentrated stock solution in 100% ethanol. The concentrated stocks were then added to the flavored sweetener solutions to result in a final ethanol concentration of 0.2%. The control (positive and negative) samples were also normalized to 0.2% ethanol. This level of ethanol was not seen to contribute any perceived sweetness
as §1, with “Both” for “All control and variant samples were prepared as described in Example 3. Both”, “sample. For the sweet attribute, panelists made an absolute scoring on a 15 cm line scale where each cm represents a 1% increase in sucrose to cover the range of 0% to 15% sucrose.” for “sample.”
Data was collected and exported electronically utilizing FIZZ sensory software. Data analysis was conducted using SENPAQ version 5.0 software that uses tools such as ANOVA, Fisher's LSD, correlation to determine panel performance as well as significant differences between samples and attributes.
The letter “a” indicates significant differences among the samples at 95% confidence level. Fold enhancement (increase in perceived sweetness) was calculated by dividing the DA panel average intensity score observed for a variant sample by that observed for the negative control sample.

[3] = test system: perception of sweet taste of high fructose cornsyrup (HFCS); experiment: 2AFC assessment of increase in perceived sweetness of HFCS solution; settings: for Compound concentration with positive 2AFC results: in 5brix HFCS test sample; for Fold increase in perceived sweetness: positive control concentration surpassed divided by test sample concentration (5brix HFCS), approximate; for Sweetener Concentration of positive control surpassed by test sample: test sample 5brix HFCS plus compound, 2AFC sip and spit, panelists n≧15
Method: Effect of test compounds on the perception of sweet taste of high fructose cornsyrup (HFCS) two-alternative forced choice method (2AFC). The effect of the test compounds on the perception of the sweet taste of an aqueous solution of sweetener in humans was evaluated using a two-alternative forced choice “sip and spit” method (2AFC). The aqueous sweetener solutions were prepared by adding sucrose equivalent (SE) quantities of high fructose corn syrup (HFCS) (by weight), to water to achieve the desired concentration. The aqueous solutions ranged in pH from pH 2.5-pH 7. Compounds of the invention were first prepared as a 500-fold concentrated stock solution in 100% ethanol. These concentrated stocks were then added to the aqueous sweetener solutions to result in a final ethanol concentration of 0.2%. The control (positive and negative) samples were also normalized to 0.2% ethanol. This level of ethanol was not seen to contribute any perceived sweetness. The 2AFC test used for compound evaluation was a double blinded and randomized test where taste panelists (n≧15) evaluate a pair of sweetener solutions at a time—one sample contains aqueous sweetener solution plus compound (i.e. test) while the other contains aqueous sweetener solution at higher concentration without compound (i.e. positive control). Each test sample was compared against a positive control. For example, if the test sample contained 1× sweetener concentration with compound (e.g. 5brix HFCS with compound), the positive control sample contained a 1.1× sweetener concentration (e.g. 5.5brix HFCS without compound). […] Panelists were instructed not to eat or drink (except water) for at least 1 hour before the test. During the test, panelists were instructed to sip each sample, swirl it around their mouth and then expectorate. After tasting each sample in the pair, panelists were instructed to record the sample that is “sweeter” in taste. Panelists cleansed their palates by rinsing with water, eating a cracker and waiting for an interval of about 5 minutes. All samples were tasted at ambient temperatures. Data were analyzed using binomial probabilities. Approximate levels of sweetness enhancement in column 5 of Table 2 were calculated as follows: Approximate levels of sweetness enhancement=Sweetener concentration of positive control surpassed by the test sample, divided by sweetener concentration for compound-containing sample (e.g.1.3×=6.5brix HFCS/5brix HFCS).

[4] = Compound 2 @ 50 ppm in 7.7brix HFCS lemon lime matrix
[5] = Compound 5 @ 20 ppm in 6.67brix HFCS lemon lime matrix

## COc1ccc([C@@H]2CCc3ccc(O)c(C)c3O2)cc1O [Compound 2, (S)-2-(3-hydroxy-4-methoxyphenyl)-8-methylchroman-7-ol]
[1]
  Other attributes including astringent, licorice and bitter (spider plot, vs control): observed to be significant
[2]; [4]
  Average Sweetness Intensity Score w/ ANOVA (on 15 cm scale): 10.3^a
  Fold enhancement of sweetness perception as compared to control sample: 1.43X
[2]
  Perceived sweetness (spider plot, vs control sweetener solution): significant increase in perceived sweetness
[3]
  Compound concentration with positive 2AFC results: 50 ppm
  Fold increase in perceived sweetness: >1.3X
  Sweetener Concentration of positive control surpassed by test sample: 6.5brix HFCS

## COc1ccc(C2CCc3cc(C)c(O)cc3O2)cc1O (single isomer, unassigned; (-)) [Compound 5, (−)-2-(3-hydroxy-4-methoxyphenyl)-6-methylchroman-7-ol]
[1]
  Other attributes including astringent, licorice and bitter (spider plot, vs control): observed to be significant
[2]; [5]
  Average Sweetness Intensity Score w/ ANOVA (on 15 cm scale): 9.7^a
  Fold enhancement of sweetness perception as compared to control sample: 1.47X
[2]
  Perceived sweetness (spider plot, vs control sweetener solution): significant increase in perceived sweetness
[3]
  Compound concentration with positive 2AFC results: 20 ppm
  Fold increase in perceived sweetness: >1.5X
  Sweetener Concentration of positive control surpassed by test sample: 7.5brix HFCS

## COc1ccc(C2CCc3ccc(O)c(C)c3O2)cc1O (racemic) [Compound 1, 2-(3-hydroxy-4-methoxyphenyl)-8-methylchroman-7-ol]
[3]
  Compound concentration with positive 2AFC results: 35 ppm
  Fold increase in perceived sweetness: >1.2X
  Sweetener Concentration of positive control surpassed by test sample: 6brix HFCS

## COc1ccc(C2CCc3cc(C)c(O)cc3O2)cc1O (racemic) [Compound 4, 2-(3-hydroxy-4-methoxyphenyl)-6-methylchroman-7-ol]
[3]
  Compound concentration with positive 2AFC results: 20 ppm
  Fold increase in perceived sweetness: >1.3X
  Sweetener Concentration of positive control surpassed by test sample: 6.5brix HFCS

From patent US20170303574A1, “COMPOUNDS, COMPOSITIONS, AND METHODS FOR MODULATING SWEET TASTE” (Chromocell Corporation, priority 2014, published 2017)
